Test results from ChEMBL document CHEMBL1134818, “A designed antagonist of the thyroid hormone receptor” (Bioorg Med Chem Lett, 2001).

What was measured:
[1] = target: T1, Thyroid hormone receptor alpha (Homo sapiens, UniProt P10827); assay: Binding affinity towards thyroid hormone receptor (hTR alpha 1)
T1 sequence (P10827 whole entry): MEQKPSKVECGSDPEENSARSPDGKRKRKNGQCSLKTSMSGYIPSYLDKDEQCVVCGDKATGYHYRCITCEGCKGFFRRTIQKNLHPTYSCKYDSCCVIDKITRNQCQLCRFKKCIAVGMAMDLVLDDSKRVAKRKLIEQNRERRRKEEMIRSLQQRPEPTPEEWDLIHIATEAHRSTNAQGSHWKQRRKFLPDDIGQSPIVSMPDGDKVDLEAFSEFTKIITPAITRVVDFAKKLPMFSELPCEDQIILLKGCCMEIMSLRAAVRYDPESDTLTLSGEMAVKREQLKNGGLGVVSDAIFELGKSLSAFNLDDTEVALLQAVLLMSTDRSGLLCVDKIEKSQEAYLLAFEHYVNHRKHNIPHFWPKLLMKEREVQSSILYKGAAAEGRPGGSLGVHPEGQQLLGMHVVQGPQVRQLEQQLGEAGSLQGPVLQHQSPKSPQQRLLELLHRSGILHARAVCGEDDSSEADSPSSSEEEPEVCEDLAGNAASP

[2] = target: T2, Thyroid hormone receptor beta (Homo sapiens, UniProt P10828); assay: Binding affinity towards thyroid hormone receptor (hTR beta 1)
T2 sequence (P10828 whole entry): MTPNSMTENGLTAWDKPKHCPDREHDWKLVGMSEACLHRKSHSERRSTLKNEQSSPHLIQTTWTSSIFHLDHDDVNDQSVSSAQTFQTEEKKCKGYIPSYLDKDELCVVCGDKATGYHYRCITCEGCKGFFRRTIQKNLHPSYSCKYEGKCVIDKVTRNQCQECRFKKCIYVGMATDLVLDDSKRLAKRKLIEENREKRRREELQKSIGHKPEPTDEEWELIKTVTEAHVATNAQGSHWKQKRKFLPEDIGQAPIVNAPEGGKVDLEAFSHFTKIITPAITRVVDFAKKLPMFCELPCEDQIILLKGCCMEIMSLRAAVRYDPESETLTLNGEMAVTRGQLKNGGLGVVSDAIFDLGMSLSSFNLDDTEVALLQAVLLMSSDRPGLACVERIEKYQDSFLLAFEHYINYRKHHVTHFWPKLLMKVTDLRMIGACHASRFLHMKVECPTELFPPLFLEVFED

Structure (SMILES)	Kd [1]	Kd [2]
CCCCN(C)C(=O)CCCCCC/C=C\CCC(c1ccc(O)c(C(C)C)c1)c1c(C)cc(OCC(=O)O)cc1C (stereo not given)	0.24 µM	0.72 µM
C=CCC(c1ccc(O)c(C(C)C)c1)c1c(C)cc(OCC(=O)O)cc1C (stereo not given)	0.43 µM	0.09 µM

The remaining compounds from weak to strong by Kd [1], led by results:

Kd [1]	Kd [2]	Structure (SMILES)
1.4 µM	4.2 µM	COc1ccc(C(c2ccc(O)c(C(C)C)c2)c2c(C)cc(OCC(=O)O)cc2C)c(OC)c1 (stereo not given)
1.4 µM	3.6 µM	Cc1cc(OCC(=O)O)cc(C)c1C(CCCO)c1ccc(O)c(C(C)C)c1 (stereo not given)
0.112 µM	0.148 µM	CCCCN(C)C(=O)CCCCCCCCCCC(c1ccc(O)c(C(C)C)c1)c1c(C)cc(OCC(=O)O)cc1C (stereo not given)
